# Reference: US10919896B2, “Preparation and uses of pyrimidinone derivatives” (Cancer Research Technology Limited, priority 2016, dated 2021)
# Structures can show the parent of a compound that is named as a salt.
# Assays:
# [1] = tested on: Cdc7 (pS53MCM2 levels in SW48 cells); assay: Cdc7 Cell Pharmacodynamics Assay Method 3: pS53MCM2 levels in SW48 cells, 6 hours; type: cell-based; conditions: hydrochloride
# Text: This protocol describes a method to investigate the inhibition of Cdc7 activity by measuring pS53MCM2 levels in cells, after treatment with compounds.
# • SW48 cells • RPMI 1640 (Sigma, R5886) • 10% FCS (Sera Laboratories International Ltd, EU000F Batch:108005) • 100× L-Glutamine (Invitrogen, 25030-024) • D-Glucose Solution (10%) (Sigma, G8644) • HEPES Buffer Solution (Sigma, 83264) • Sodium Pyruvate (Sigma, S8636) • PBS (Fisger, BP399-4) • Trypsin/EDTA (Invitrogen 25300-054) • 2% BSA in PBS • Cell Extraction Buffer (Invitrogen FNN0011) • Protease inhibitor cocktail (Sigma P-2714) • PMSF 0.3M stock in DMSO (Sigma P7626) • Antibody-rabbit pMCM2 Ser53 (Bethyl #A300-756A) • Antibody-goat MCM2 (Bethyl #A300-122A) • Antibody-goat Anti Rabbit IgG HRP (Perbio Science UK Ltd 31462) • SuperSignal ELISA Pico Chemiluminescent Substrate (Perbio Science UK Ltd 37070) Method • Plate 30,000 SW48 cells per well in standard TC treated 96 well plate in 100 μL complete RPMI 1640 medium. • Allow cells to settle overnight in incubator set at 37° C. and 5% CO2. • Cell treatment: prepare a 384 well plate containing 80 μl PBS/well. The PBS should be at room temperature—to be referred to as intermediate plate. Transfer 2 μL of compound from mother plate to intermediate (daughter plate) 1:40 dilution, then 5 μL intermediate to cell (daughter) plate. • Once all cells are treated place the cells back to the incubator and incubate for 6 hours. • Dilute the capture antibody (total MCM2#A300-122A) 1 in 250 in the required volume of PBS (5 mL per assay plate, plus 5 mL for dead volume) and add 50 μL to each well of a Hybond plate. Seal the plate and incubate at room temperature for a minimum of 2 hours. • Defrost aliquot of Invitrogen Cell Extraction Buffer (FNN0011) on ice and supplement with appropriate volume of both Sigma protease inhibitor cocktail (P-2714) and PMSF (final conc 1 mM from a 1 M stock in DMSO). • After the 6 hour cell treatment time, tap out the media from the assay plates and place them in the −80° C. freezer for at least 5 minutes. • Remove plates from freezer and add 20 μL of ice cold complete lysis buffer, with the multidrop. Incubate cells for 30 minutes at 4° C. • Add 80 μL per well 2% BSA. • Flick out the remaining liquid from the capture plate and transfer 80 μL from the lysis plate to the same wells in the capture/ELISA plate, using the Biomek. Cover with plate seal and incubate plates overnight at 4° C. • Wash plates with PBS, remove any residual remaining liquid and add 50 μL per well of pMCM2 Ser53 antibody (#A300-756A) diluted 1 in 100 in 2% BSA. Cover plate and incubate at room temperature for 2 hours with gentle shaking. • Wash plates with PBS, remove any residual remaining liquid and Incubate with 50 μL goat anti rabbit antibody (1 in 800 dilution in 2% BSA), for 1 hour at room temperature. • Wash plates with PBS, remove any residual remaining liquid and add 50 μL mixed SuperSignal Pico substrate. • Incubate each plate for 5 minutes at room temperature shielding the plates from direct light (with a cover plate). Read plates with the luminescent detection.
# [2] = biological target: T1, Cdc7/ASK (Homo sapiens, UniProt O00311); assay: Cdc7 Biochemical Assay Method 4: off-chip mobility shift assay (Carna Biosciences); design: purchased Carna Biosciences; host or cells: baculovirus expression system; conditions: off-chip MSA, MCM2 peptide, 5 hours; read-out: Biochemical Method 4 (pIC50) (converted)
# T1 sequence (O00311 whole entry): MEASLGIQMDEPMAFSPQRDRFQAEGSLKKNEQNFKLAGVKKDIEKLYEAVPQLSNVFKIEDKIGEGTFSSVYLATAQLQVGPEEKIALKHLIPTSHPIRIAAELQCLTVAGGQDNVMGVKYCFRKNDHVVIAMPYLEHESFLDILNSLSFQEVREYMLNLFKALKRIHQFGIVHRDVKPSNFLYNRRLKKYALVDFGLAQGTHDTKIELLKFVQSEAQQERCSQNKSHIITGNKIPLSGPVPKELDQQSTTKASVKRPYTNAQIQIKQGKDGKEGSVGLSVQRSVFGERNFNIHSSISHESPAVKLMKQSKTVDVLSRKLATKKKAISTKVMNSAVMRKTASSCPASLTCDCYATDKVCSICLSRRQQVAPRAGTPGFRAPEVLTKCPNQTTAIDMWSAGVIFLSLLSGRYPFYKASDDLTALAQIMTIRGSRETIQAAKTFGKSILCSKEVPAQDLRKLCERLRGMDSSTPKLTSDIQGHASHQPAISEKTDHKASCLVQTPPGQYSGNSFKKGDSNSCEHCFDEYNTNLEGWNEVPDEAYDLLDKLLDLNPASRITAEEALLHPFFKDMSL
# T1 sequence (Q9UBU7 whole entry partner): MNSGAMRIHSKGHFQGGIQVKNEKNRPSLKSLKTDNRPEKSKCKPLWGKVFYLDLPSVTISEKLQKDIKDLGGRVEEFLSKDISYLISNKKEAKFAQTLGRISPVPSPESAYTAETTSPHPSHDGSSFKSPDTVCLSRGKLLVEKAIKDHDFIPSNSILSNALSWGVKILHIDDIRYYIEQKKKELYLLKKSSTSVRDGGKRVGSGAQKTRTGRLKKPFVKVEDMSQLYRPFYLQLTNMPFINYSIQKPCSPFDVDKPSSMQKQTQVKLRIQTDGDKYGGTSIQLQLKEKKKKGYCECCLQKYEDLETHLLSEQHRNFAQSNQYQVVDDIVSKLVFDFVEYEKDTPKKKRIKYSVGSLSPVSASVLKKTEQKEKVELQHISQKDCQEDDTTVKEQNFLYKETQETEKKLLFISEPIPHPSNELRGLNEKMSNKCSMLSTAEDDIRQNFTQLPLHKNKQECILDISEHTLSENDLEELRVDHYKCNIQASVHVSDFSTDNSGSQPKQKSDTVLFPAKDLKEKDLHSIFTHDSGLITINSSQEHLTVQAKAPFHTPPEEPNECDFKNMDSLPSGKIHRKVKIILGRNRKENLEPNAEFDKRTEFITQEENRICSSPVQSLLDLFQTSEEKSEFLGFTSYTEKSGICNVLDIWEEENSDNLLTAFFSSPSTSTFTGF
# Description: This protocol describes a method for assaying Cdc7/ASK for activity. The assay is an off-chip mobility shift assay (MSA) run at Carna Biosciences.
# 1. Preparation of Test Compound Solution.
# The test compound was dissolved in and diluted with dimethylsulfoxide (DMSO) to achieve 100-fold higher concentration which was specified by the sponsor. Then the solution was further 25-fold diluted with assay buffer to make the final test compound solution. Reference compounds for assay control were prepared similarly.
# Cdc7/ASK: Full-length human Cdc7 [1-574(end) amino acids of accession number NP_003494.1] was co-expressed as N-terminal GST-fusion protein (92 kDa) with Dbf4(ASK) [1-674(end) amino acids of accession number NP_006707.1] using baculovirus expression system. GST-Cdc7 was purified by using glutathione sepharose chromatography.
# 3. Assay Reagents and Procedures
# Off-chip Mobility Shift Assay (MSA)
# 1) The […] of ×2 kinase solution were prepared with assay buffer (20 mM HEPES, 0.01% Triton X-100, 1 mM DTT, pH 7.5) and mixed and incubated in a well of polypropylene 384 well microplate for 5 hours at room temperature. 2) […] of Termination Buffer (QuickScout Screening Assist MSA; Carna Biosciences) was added to the well. 3) The reaction mixture was applied to LabChip system (Perkin Elmer), and the product and substrate peptide peaks were separated and quantitated. 4) The kinase reaction was evaluated by the product ratio calculated from peak heights of product (P) and substrate (S) peptides (P/(P+S)).
# Reaction time is 5 hours.
# The readout value of reaction control (complete reaction mixture) was set as a 0% inhibition, and the readout value of background (Enzyme(−)) was set as a 100% inhibition, then the percent inhibition of each test solution was calculated.
# IC50 value was calculated from concentration vs. % Inhibition curves by fitting to a four parameter logistic curve.
# [3] = tested on: Cdc7 (pS40MCM2 levels in HCT116 cells); assay: Cdc7 Cell Pharmacodynamics Assay Method 2A: pS40MCM2 levels in HCT116 cells, 6 hours; type: cell-based; conditions: Homo sapiens, HCT-116, read-out: Biomarker Method 2A (pEC50) (converted)
# Text: This protocol describes a method to investigate the inhibition of Cdc7 activity by measuring pS40MCM2 levels in cells, after treatment with compounds.
# • HCT116 cells (ATCC, #CCL-247) • McCoys 5A with L-glutamine (Cellgro, #10-050-CV) • 10% FCS (Cellgro, #35-010-CV) • D-PBS without CaCl2 and MgCl2 (Cellgro, #21-031-CV) • Trypsin/EDTA (Cellgro, #25-052-CL) • BSA (Calbiochem, 126593) • Cell Extraction Buffer (Invitrogen FNN0011) • Protease inhibitor cocktail (Sigma P-2714) • PMSF 0.3M stock in DMSO (Sigma P7626) • Antibody-rabbit pMCM2 Ser40 (Abcam, AB133243) • Antibody-goat MCM2 (Bethyl #A300-122A) • Antibody-goat Anti Rabbit IgG HRP (Thermo, 31462) • SuperSignal ELISA Pico Chemiluminescent Substrate (Perbio Science UK Ltd 37069) • 10×PBS (Growcells, MRGF-6236) • Triton X100 (Sigma, P-T8787) • DMSO (Fisher, D128-1) • 2-Propanol (J. T. Baker, 9095-03) Method • Seed 1×10^6 HCT116 cells into each of two 175 cm^2 flask containing 30 mL Cell Growth Media and incubate at 37° C., 5% CO2 for 3 days. • Harvest the cells from one T175 cm^2 flask and count. • Dilute with Cell Growth Media to a cell density of 2×10^5. Dispense 100 μL to each well (20,000 HCT116 cells/well) of TC treated 96-well plate(s). • Allow cells to settle overnight in incubator set at 37° C. and 5% CO2. • Cell treatment: Transfer 0.25 μL/well from the compound plate to the wells of the cell plate(s). This is a 1:400 dilution of compound in the assay. • Once all cells are treated place the cells back to the incubator and incubate for either 6 hours (Method 2A) or 18 hours (Method 2B). • Dilute the capture antibody (total MCM2#A300-122A) 1 in 250 in the required volume of PBS (5 mL per assay plate, plus 5 mL for dead volume) and add 50 μL to each well of a Hybond plate except wells A12 & B12. Seal the plate and incubate at room temperature for a minimum of 2 hours. • Defrost aliquot of Invitrogen Cell Extraction Buffer (FNN0011) on ice and supplement with appropriate volume of both Sigma protease inhibitor cocktail (P-2714) and PMSF (final conc 1 mM from a 1 M stock in DMSO). • After the 6 hour or 18 hour cell treatment time, tap out the media from the assay plates and place them in the −70° C. freezer for at least 5 minutes. • Flick out the remaining liquid in the previously prepared capture Ab plate(s) and add 200 μL 2% BSA per well. Incubate for 1 hour at room temperature. • Remove plates from freezer and add 20 μL of ice cold complete lysis buffer. Incubate cells for 30 minutes at 4° C. • Add 30 μL per well 2% BSA • At the end of the 1 hour incubation, wash the Capture/ELISA plate(s) with Wash Buffer on the BioTek plate washer. • Transfer 40 μL per well of the lysis plate(s) to the same wells in the Capture/ELISA plate. Incubate cells overnight at 4° C. • At the end of the overnight incubation, wash the ELISA plate(s) with Wash Buffer on BioTek plate washer. • Prepare Detection Antibody Buffer and dispense 50 μL to all wells of ELISA plate(s) except wells G1 & H1. Cover plate and incubate at room temperature for 2 hours with gentle shaking. • At the end of the 2 hour incubation, wash the ELISA plate(s) with Wash Buffer on the BioTek plate washer. • Prepare the Conjugated Antibody Buffer and dispense 50 μL to all wells of ELISA plate(s). • Cover the plate and incubate at room temperature for 1 hour with gentle shaking. • At the end of the 1 hour incubation, wash the ELISA plate(s) with Wash Buffer on the BioTek plate washer. • Prepare Substrate Buffer and dispense 50 μL to all wells of ELISA plate(s). • Incubate for a minimum of 10 minutes and read plates on the EnVision 2100 Multilabel Reader (Mirror: Luminescence (404) & Luminescence 700 (212); Measurement Height: 6.5 mm; Measurement Time: 0.2 s). Method 3
# [4] = biological target: T1, Cdc7/ASK; assay: Cdc7 Biochemical Assay Method 2: 384 well mobility shift assay (EZ Reader II), MCM2 peptide substrate; design: purchased; conditions: 12.5 μM ATP, read-out: Biochemical Method 2 (pIC50) (converted)
# Description: This protocol describes a method for assaying Cdc7/ASK for activity. The assay is a 384 well mobility shift assay (MSA) run on the EZ Reader II microfluidics plate reader (Caliper LifeSciences), utilising a peptide substrate based on the MCM2 sequence. The assay technology is based on the change in mobility between the peptide substrate and the phosphorylated product. A 10 nL volume of the reaction mixture is sipped onto the microfluidic chip where the substrate and product are separated by electrophoresis and detected via laser-induced fluorescence (488 nm LED). The reaction can be monitored in real-time for kinetic experiments or as an end-point for IC50 determinations. The % conversion of substrate is calculated from peak heights of product (P) and substrate (S) peptides (% conversion=P/(P+S)*100).
# • 10× Assay Buffer: 200 mM HEPES pH 8, 100 mM MgCl2, 0.1% v/v Triton X-100 and 15 mM DTT. Prepare fresh buffer from 1 M HEPES pH 8, 1 M MgCl2, 1 M DTT and 10% Triton x-100 stocks for each experiment. • Cdc7/ASK is purchased from commercial suppliers and used in the assay at a final assay concentration of 0.847 ng/μL or 9.2 nM. • MCM2 peptide is purchased from commercial suppliers and used in the assay at a final assay concentration of 2.5 μM. • ATP used in the assay at a final assay concentration of 12.5 μM. Methods • 1. Prepare intermediate (daughter) compound plate by transferring 2 μL of compound from the mother plate to 18 μL of 33.3% DMSO in a clear polypropylene plate. • 2. Dry-spot 1 μL of compound from the intermediate compound plate to empty assay plate. • 3. Add 5 μL of 1.694 ng/μL CDC7/ASK working solution to ‘test’ and ‘control’ wells or […] of 2× Assay Buffer to ‘blank’ wells. • 4. Add 4 μL 2.5 μM peptide/12.5 μM ATP working solution to all wells. • 5. Incubate at 37° C. for 1 hour then remove from the incubator and leave for a further 1 hour at room temperature. • 6. Place plate into an EZReader II to read.
# Percentage inhibition values were calculated from % of substrate conversion values, using the no compound (DMSO) and no enzyme control values as 0% and 100% inhibition, respectively. IC50 determination was performed with ExcelFit software (IDBS) using curve fit 205. Z′ factors were determined for each plate tested and were all above 0.5.
# [5] = biological target: Cdc7/Dbf4 (Homo sapiens, UniProt O00311); assay: Cdc7 Biochemical Assay Method 3: Cdc7/Dbf4 Enzyme TR-FRET Assay measuring pS40MCM2; conditions: 1 μM ATP, read-out: Biochemical Method 3 (pIC50) (converted)
# Sequence of Cdc7/Dbf4 (O00311 whole entry): as the sequence (O00311 whole entry) above
# Sequence of Cdc7/Dbf4 (Q9UBU7 whole entry partner): as the sequence (Q9UBU7 whole entry partner) above
# Method in brief: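 2.5 nM Cdc7/Dbf4 incubated with 100 nM biotinylated MCM2-derived peptide and 1 μM ATP, 120 minutes at 25° C. Phospho-S40 detected by TR-FRET using anti-pS40 Mcm2 antibody, terbium anti-rabbit secondary and streptavidin-Alexa Fluor488.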
Biomarker Method 3 (pEC50) [1],IC50 [2] [nM],EC50 [3] [nM],IC50 [4] [nM],IC50 [5] [nM],Compound
5.88,7.94,,,,"O=c1[nH]c(-c2ccnc(F)c2)nc(N2CCNCC(F)C2)c1Cl (single isomer, unassigned) [Compound 379, 5-chloro-4-(6-fluoro-1,4-diazepan-1-yl)-2-(2-fluoro-4-pyridyl)-1H-pyrimidin-6-one hydrochloride]"
6.70,3.98,,,,"O=c1[nH]c(-c2ccnc(F)c2)nc(N2CCNCC(F)C2)c1Cl (single isomer, unassigned) [Compound 380, 5-chloro-4-(6-fluoro-1,4-diazepan-1-yl)-2-(2-fluoro-4-pyridyl)-1H-pyrimidin-6-one hydrochloride]"
5.32,70.8,,,,"CC(C)(F)C1CN(c2nc(-c3ccnc(F)c3)[nH]c(=O)c2Cl)CCN1 (single isomer, unassigned) [Compound 381, 5-chloro-4-[3-(1-fluoro-1-methyl-ethyl)piperazin-1-yl]-2-(2-fluoro-4-pyridyl)-1H-pyrimidin-6-one hydrochloride]"
,,316,3.72,0.794,N[C@H]1CCN(c2nc(-c3ccnc(F)c3)[nH]c(=O)c2Cl)C1 [Compound 320]
